System: T-Rex 293 cells having increased expression of estrogen receptor alpha protein
Experiment: Cellular growth inhibition assay, T-Rex 293 cells, (+) doxycycline
Assay type: cell-based
Conditions: T-REx-293, 72 h, Table 7-A; T-Rex 293 cells with doxycycline (increased ERα expression); 72 hours; CellTiter-Glo; read-out: (+) Dox GI50
Method in brief: (§1)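 Viability read-out was CellTiter-Glo 2.0 luminescence after 72 h compound exposure, normalized to zero luminescence and fitted by four-parameter regression to give GI50. Cells were an ERα-inducible T-Rex 293 clone cultured with or without 3 ng/mL doxycycline in charcoal-stripped, phenol red-free medium.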

Row | SMILES | GI50 [µM]
1 | Cc1sc2c(c1C)C(c1ccc(C3CN(C(=O)C4CCN(c5ccc([C@@H]6c7ccc(O)cc7CC[C@@H]6c6ccccc6)cc5)CC4)C3)cc1)=N[C@@H](C)c1nnc(C)n1-2 [III-142] | 0.05 to 0.5
2 | Cc1sc2c(c1C)C(c1ccc(N3CCC(O)(CN4CCN(c5ccc([C@@H]6c7ccc(O)cc7CC[C@@H]6c6ccccc6)cc5)CC4)CC3)cc1)=N[C@@H](Cc1ncco1)c1nnc(C)n1-2 [III-143] | > 2.5
3 | Cc1sc2c(c1C)C(c1ccc(N3CCC(F)(CN4CCC(c5ccc([C@@H]6c7ccc(O)cc7CC[C@@H]6c6ccccc6)cc5)CC4)CC3)cc1)=N[C@@H](C)c1nnc(C)n1-2 [III-144] | 0.05 to 0.5
4 | Cc1sc2c(c1C)C(c1ccc(N3CCC(C)(CN4CCC(c5ccc([C@@H]6c7ccc(O)cc7CC[C@@H]6c6ccccc6)cc5)CC4)CC3)cc1)=N[C@@H](C)c1nnc(C)n1-2 [III-145] | 0.5 to 2.5
5 | Cc1sc2c(c1C)C(c1ccc(N3CC(CN4CCN(CC5CN(c6ccc([C@@H]7c8ccc(O)cc8CC[C@@H]7c7ccccc7)cc6)C5)CC4)C3)cc1)=N[C@H](C)c1nnc(C)n1-2 [III-146] | 0.5 to 2.5
6 | Cc1sc2c(c1C)C(c1ccc(N3CC(CN4CCN(CC5CN(c6ccc([C@H]7c8ccc(O)cc8CC[C@H]7c7ccccc7)cc6)C5)CC4)C3)cc1)=N[C@@H](C)c1nnc(C)n1-2 [III-147] | 0.05 to 0.5
7 | Cc1sc2c(c1C)C(c1ccc(N3CC(CN4CCC(c5ccc([C@@H]6c7ccc(O)cc7CC[C@@H]6c6ccccc6)cc5)CC4)C3)cc1)=N[C@@H](C)c1nnc(C)n1-2 [III-148] | < 0.05
8 | Cc1sc2c(c1C)C(c1ccc(N3CCC(C(=O)N4CCN(c5ccc([C@@H]6c7ccc(O)cc7CC[C@@H]6c6ccccc6)cc5)CC4)CC3)cc1)=N[C@@H](Cc1ncco1)c1nnc(C)n1-2 [III-149] | < 0.05
9 | Cc1sc2c(c1C)C(c1ccc(N3CCC(C#N)(CN4CCN(c5ccc([C@@H]6c7ccc(O)cc7CC[C@@H]6c6ccccc6)cc5)CC4)CC3)cc1)=N[C@@H](C)c1nnc(C)n1-2 [III-150] | < 0.05
10 | Cc1sc2c(c1C)C(c1ccc(N3CC(CC4CCN(CC5(F)CN(c6ccc([C@@H]7c8ccc(O)cc8CC[C@@H]7c7ccccc7)cc6)C5)CC4)C3)cc1)=N[C@@H](C)c1nnc(C)n1-2 [III-151] | < 0.05
11 | Cc1sc2c(c1C)C(c1ccc(N3CCC(O)(CC4CCN(c5ccc([C@@H]6c7ccc(O)cc7CC[C@@H]6c6ccccc6)cc5)CC4)CC3)cc1)=N[C@@H](C)c1nnc(C)n1-2 [III-152] | < 0.05
12 | Cc1sc2c(c1C)C(c1ccc(N3CCC(CC4(O)CCN(c5ccc([C@@H]6c7ccc(O)cc7CC[C@@H]6c6ccccc6)cc5)CC4)CC3)cc1)=N[C@@H](C)c1nnc(C)n1-2 [III-153] | < 0.05
13 | Cc1sc2c(c1C)C(c1ccc(N3CCC(O)(CC4CCN(c5ccc([C@@H]6c7ccc(O)cc7CC[C@@H]6c6ccccc6)cc5)CC4)CC3)cc1)=N[C@H](Cc1ncco1)c1nnc(C)n1-2 [III-154] | > 2.5
14 | Cc1sc2c(c1C)C(c1ccc(N3CCC(O)(CC4CCN(c5ccc([C@@H]6c7ccc(O)cc7CC[C@@H]6c6ccccc6)cc5)CC4)CC3)cc1)=N[C@@H](Cc1ncco1)c1nnc(C)n1-2 [III-155] | < 0.05
15 | Cc1sc2c(c1C)C(c1ccc(C3CN(C(=O)C4CCN(c5ccc([C@@H]6c7ccc(O)cc7CC[C@@H]6c6ccccc6)cc5)CC4)C3)cc1)=N[C@@H](Cc1ncco1)c1nnc(C)n1-2 [III-156] | < 0.05

System: T-Rex 293 cells lacking increased expression of estrogen receptor alpha protein
Experiment: Cellular growth inhibition assay, T-Rex 293 cells, (−) doxycycline
Assay type: cell-based
Conditions: T-REx-293, 72 h, Table 7-A; T-Rex 293 cells without doxycycline (lacking increased ERα expression); 72 hours; CellTiter-Glo; read-out: (−) Dox GI50
Method in brief: as §1

Row | SMILES | GI50 [µM]
16 | Cc1sc2c(c1C)C(c1ccc(C3CN(C(=O)C4CCN(c5ccc([C@@H]6c7ccc(O)cc7CC[C@@H]6c6ccccc6)cc5)CC4)C3)cc1)=N[C@@H](C)c1nnc(C)n1-2 [III-142] | 0.05 to 0.5
17 | Cc1sc2c(c1C)C(c1ccc(N3CCC(O)(CN4CCN(c5ccc([C@@H]6c7ccc(O)cc7CC[C@@H]6c6ccccc6)cc5)CC4)CC3)cc1)=N[C@@H](Cc1ncco1)c1nnc(C)n1-2 [III-143] | > 2.5
18 | Cc1sc2c(c1C)C(c1ccc(N3CCC(F)(CN4CCC(c5ccc([C@@H]6c7ccc(O)cc7CC[C@@H]6c6ccccc6)cc5)CC4)CC3)cc1)=N[C@@H](C)c1nnc(C)n1-2 [III-144] | > 2.5
19 | Cc1sc2c(c1C)C(c1ccc(N3CCC(C)(CN4CCC(c5ccc([C@@H]6c7ccc(O)cc7CC[C@@H]6c6ccccc6)cc5)CC4)CC3)cc1)=N[C@@H](C)c1nnc(C)n1-2 [III-145] | 0.5 to 2.5
20 | Cc1sc2c(c1C)C(c1ccc(N3CC(CN4CCN(CC5CN(c6ccc([C@@H]7c8ccc(O)cc8CC[C@@H]7c7ccccc7)cc6)C5)CC4)C3)cc1)=N[C@H](C)c1nnc(C)n1-2 [III-146] | 0.5 to 2.5
21 | Cc1sc2c(c1C)C(c1ccc(N3CC(CN4CCN(CC5CN(c6ccc([C@H]7c8ccc(O)cc8CC[C@H]7c7ccccc7)cc6)C5)CC4)C3)cc1)=N[C@@H](C)c1nnc(C)n1-2 [III-147] | 0.05 to 0.5
22 | Cc1sc2c(c1C)C(c1ccc(N3CC(CN4CCC(c5ccc([C@@H]6c7ccc(O)cc7CC[C@@H]6c6ccccc6)cc5)CC4)C3)cc1)=N[C@@H](C)c1nnc(C)n1-2 [III-148] | 0.5 to 2.5
23 | Cc1sc2c(c1C)C(c1ccc(N3CCC(C(=O)N4CCN(c5ccc([C@@H]6c7ccc(O)cc7CC[C@@H]6c6ccccc6)cc5)CC4)CC3)cc1)=N[C@@H](Cc1ncco1)c1nnc(C)n1-2 [III-149] | 0.05 to 0.5
24 | Cc1sc2c(c1C)C(c1ccc(N3CCC(C#N)(CN4CCN(c5ccc([C@@H]6c7ccc(O)cc7CC[C@@H]6c6ccccc6)cc5)CC4)CC3)cc1)=N[C@@H](C)c1nnc(C)n1-2 [III-150] | 0.5 to 2.5
25 | Cc1sc2c(c1C)C(c1ccc(N3CC(CC4CCN(CC5(F)CN(c6ccc([C@@H]7c8ccc(O)cc8CC[C@@H]7c7ccccc7)cc6)C5)CC4)C3)cc1)=N[C@@H](C)c1nnc(C)n1-2 [III-151] | > 2.5
26 | Cc1sc2c(c1C)C(c1ccc(N3CCC(O)(CC4CCN(c5ccc([C@@H]6c7ccc(O)cc7CC[C@@H]6c6ccccc6)cc5)CC4)CC3)cc1)=N[C@@H](C)c1nnc(C)n1-2 [III-152] | 0.5 to 2.5
27 | Cc1sc2c(c1C)C(c1ccc(N3CCC(CC4(O)CCN(c5ccc([C@@H]6c7ccc(O)cc7CC[C@@H]6c6ccccc6)cc5)CC4)CC3)cc1)=N[C@@H](C)c1nnc(C)n1-2 [III-153] | 0.5 to 2.5
28 | Cc1sc2c(c1C)C(c1ccc(N3CCC(O)(CC4CCN(c5ccc([C@@H]6c7ccc(O)cc7CC[C@@H]6c6ccccc6)cc5)CC4)CC3)cc1)=N[C@H](Cc1ncco1)c1nnc(C)n1-2 [III-154] | > 2.5
29 | Cc1sc2c(c1C)C(c1ccc(N3CCC(O)(CC4CCN(c5ccc([C@@H]6c7ccc(O)cc7CC[C@@H]6c6ccccc6)cc5)CC4)CC3)cc1)=N[C@@H](Cc1ncco1)c1nnc(C)n1-2 [III-155] | 0.05 to 0.5
30 | Cc1sc2c(c1C)C(c1ccc(C3CN(C(=O)C4CCN(c5ccc([C@@H]6c7ccc(O)cc7CC[C@@H]6c6ccccc6)cc5)CC4)C3)cc1)=N[C@@H](Cc1ncco1)c1nnc(C)n1-2 [III-156] | < 0.05

System: MCF7 cells (ATCC #HTB-22)
Experiment: Cellular growth inhibition assay, MCF7 cells purchased from ATCC
Assay type: cell-based
Conditions: Homo sapiens, MCF7, 144 h, Table 8-A; MCF7 cells purchased from ATCC; six days; CellTiter-Glo; read-out: GI50
Method in brief: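 MCF7 cells in RPMI 1640 with 10% FBS and 0.2 U/ml insulin, seeded at 1,500 cells/well (ATCC) or 225 cells/well (ECACC). Compounds added 24 h later, then 6 days at 37° C. Viability by CellTiter-Glo 2.0 luminescence. GI50 from four-parameter fit.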

Row | SMILES | GI50 [µM]
31 | Cc1sc2c(c1C)C(c1ccc(C3CN(C(=O)C4CCN(c5ccc([C@@H]6c7ccc(O)cc7CC[C@@H]6c6ccccc6)cc5)CC4)C3)cc1)=N[C@@H](C)c1nnc(C)n1-2 [III-142] | 0.05 to 0.5
32 | Cc1sc2c(c1C)C(c1ccc(N3CCC(O)(CN4CCN(c5ccc([C@@H]6c7ccc(O)cc7CC[C@@H]6c6ccccc6)cc5)CC4)CC3)cc1)=N[C@@H](Cc1ncco1)c1nnc(C)n1-2 [III-143] | > 2.5
33 | Cc1sc2c(c1C)C(c1ccc(N3CC(CN4CCN(CC5CN(c6ccc([C@@H]7c8ccc(O)cc8CC[C@@H]7c7ccccc7)cc6)C5)CC4)C3)cc1)=N[C@H](C)c1nnc(C)n1-2 [III-146] | < 0.05
34 | Cc1sc2c(c1C)C(c1ccc(N3CC(CN4CCN(CC5CN(c6ccc([C@H]7c8ccc(O)cc8CC[C@H]7c7ccccc7)cc6)C5)CC4)C3)cc1)=N[C@@H](C)c1nnc(C)n1-2 [III-147] | 0.05 to 0.5
35 | Cc1sc2c(c1C)C(c1ccc(N3CC(CN4CCC(c5ccc([C@@H]6c7ccc(O)cc7CC[C@@H]6c6ccccc6)cc5)CC4)C3)cc1)=N[C@@H](C)c1nnc(C)n1-2 [III-148] | < 0.05
36 | Cc1sc2c(c1C)C(c1ccc(N3CCC(C(=O)N4CCN(c5ccc([C@@H]6c7ccc(O)cc7CC[C@@H]6c6ccccc6)cc5)CC4)CC3)cc1)=N[C@@H](Cc1ncco1)c1nnc(C)n1-2 [III-149] | < 0.05
37 | Cc1sc2c(c1C)C(c1ccc(N3CC(CC4CCN(CC5(F)CN(c6ccc([C@@H]7c8ccc(O)cc8CC[C@@H]7c7ccccc7)cc6)C5)CC4)C3)cc1)=N[C@@H](C)c1nnc(C)n1-2 [III-151] | < 0.05
38 | Cc1sc2c(c1C)C(c1ccc(C3CN(C(=O)C4CCN(c5ccc([C@@H]6c7ccc(O)cc7CC[C@@H]6c6ccccc6)cc5)CC4)C3)cc1)=N[C@@H](Cc1ncco1)c1nnc(C)n1-2 [III-156] | < 0.05

More lines, now with the values ahead:

Row | GI50 [µM] | SMILES
39 | 0.5 to 2.5 | Cc1sc2c(c1C)C(c1ccc(N3CCC(F)(CN4CCC(c5ccc([C@@H]6c7ccc(O)cc7CC[C@@H]6c6ccccc6)cc5)CC4)CC3)cc1)=N[C@@H](C)c1nnc(C)n1-2 [III-144]
40 | 0.05 to 0.5 | Cc1sc2c(c1C)C(c1ccc(N3CCC(C)(CN4CCC(c5ccc([C@@H]6c7ccc(O)cc7CC[C@@H]6c6ccccc6)cc5)CC4)CC3)cc1)=N[C@@H](C)c1nnc(C)n1-2 [III-145]
41 | 0.05 to 0.5 | Cc1sc2c(c1C)C(c1ccc(N3CCC(C#N)(CN4CCN(c5ccc([C@@H]6c7ccc(O)cc7CC[C@@H]6c6ccccc6)cc5)CC4)CC3)cc1)=N[C@@H](C)c1nnc(C)n1-2 [III-150]
42 | 0.05 to 0.5 | Cc1sc2c(c1C)C(c1ccc(N3CCC(O)(CC4CCN(c5ccc([C@@H]6c7ccc(O)cc7CC[C@@H]6c6ccccc6)cc5)CC4)CC3)cc1)=N[C@@H](C)c1nnc(C)n1-2 [III-152]
43 | 0.05 to 0.5 | Cc1sc2c(c1C)C(c1ccc(N3CCC(CC4(O)CCN(c5ccc([C@@H]6c7ccc(O)cc7CC[C@@H]6c6ccccc6)cc5)CC4)CC3)cc1)=N[C@@H](C)c1nnc(C)n1-2 [III-153]
44 | 0.05 to 0.5 | Cc1sc2c(c1C)C(c1ccc(N3CCC(O)(CC4CCN(c5ccc([C@@H]6c7ccc(O)cc7CC[C@@H]6c6ccccc6)cc5)CC4)CC3)cc1)=N[C@H](Cc1ncco1)c1nnc(C)n1-2 [III-154]
45 | < 0.05 | Cc1sc2c(c1C)C(c1ccc(N3CCC(O)(CC4CCN(c5ccc([C@@H]6c7ccc(O)cc7CC[C@@H]6c6ccccc6)cc5)CC4)CC3)cc1)=N[C@@H](Cc1ncco1)c1nnc(C)n1-2 [III-155]
